Measurements from patent publication US6468972B1, “Method to promote, stimulate and/or delay hair loss by a brady kinin antagonist” (Societe L'Oreal S.A., priority 1995, dated 2002).

Assays:
[1] = test system: bradykinin-induced increase in intracellular calcium concentration in keratinocytes of the outer sheath of human hair follicles; test: Effect on the increase in intracellular calcium concentration induced by bradykinin (FURA 2 spectrofluorimetry); type: cell-based; settings: for Effect on the increase in intracellular calcium concentration induced by bradykinin (in words): summary statement of Example 1; for % Inhibition (1 μM bradykinin): preincubation at least 120 seconds before 1 μM bradykinin, ORS keratinocytes
Description: (§1) a) Culturing Keratinocytes of the Outer Sheath of Human Hair Follicles: This procedure is a variant of that described by YANG et al., J. Invest. Dermatol., 1993, 101 (5), 652-659. After decontamination, a lifting scalp biopsy is treated with dispase in a proportion of 2.4 units/ml for 20 hours at 4° C. The outer sheath of the hair follicles (ORS) is then isolated by dissection, followed by treatment with 0.125% trypsin for 30 minutes at 37° C. The cells thus prepared are then cultured in conditioned Green medium for 6 days. […] The cells are then placed on glass slides 10 mm in diameter and cultured in KGM medium. b) Measurement of the Intracellular Calcium Concentration: The measurements are taken according to the procedures used conventionally by those skilled in the art and which are found, for example, in Cellular Calcium: A Practical Approach, published by J. G. McCormack and P. H. Cobbold; IRL PRESS (1991). The cells are incubated for 1 hour at 37° C. in 10 mM HEPES buffer, 5 mM KCl, 140 mM NaCl, 10 mM glucose, 1 mM MgCl2, 2 mM CaCl2 with 5 μM FURA 2 acetomethyl ester and Pluronic (5 mg/10 ml). After rinsing in the buffer, the slides are placed in an adapted support and the reading is taken using a PERKIN ELMER LS 50 B spectrofluorimeter at 37° C. The cells are preincubated with or without Minoxidil or Minoxidil sulphate, for at least 120 seconds before the injection of 1 μM bradykinin.

[2] = as above; type: cell-based, human; settings: Homo sapiens, Keratinocyte, preincubation at least 120 seconds before 1 μM bradykinin, ORS keratinocytes
Description: as §1

Nc1cc(N2CCCCC2)nc(N)[n+]1[O-] [Minoxidil, 2,4-diamino-6-piperidinopyrimidine 3-oxide]
Effect on the increase in intracellular calcium concentration induced by bradykinin (in words) [1]: inhibit the increase in intracellular calcium concentration induced by bradykinin
inhibition at 10 µM ([2]; product concentration 10 μM): 0%
inhibition at 50 µM ([2]; product concentration 50 μM): 15%
inhibition at 100 µM ([2]; product concentration 100 μM): 25%
inhibition at 1000 µM ([2]; product concentration 1000 μM): 31%

Minoxidil sulphate
% Inhibition (1 μM bradykinin) ([1]; product concentration 10 μM): 0%
% Inhibition (1 μM bradykinin) ([1]; product concentration 50 μM): 31%
% Inhibition (1 μM bradykinin) ([1]; product concentration 100 μM): 54%
% Inhibition (1 μM bradykinin) ([1]; product concentration 1000 μM): 70%
Effect on the increase in intracellular calcium concentration induced by bradykinin (in words) [1]: inhibit the increase in intracellular calcium concentration induced by bradykinin
